Results taken from patent US5932709A (University of Michigan, priority 1997, dated 1999).
Values joined by “and” are separate entries in the source; they are usually repeats but may differ in a detail not shown here. Equal entries are not always repeated. Structures can show the parent of a compound that is named as a salt.

Assays:
carcinoma cells = conditions: in vitro clonogenic assay / tumor cell growth, in words; cited from earlier work
topoisomerase I = conditions: TPT-HCl; Wall et al.; cited from earlier work
tumor growth = conditions: in words; cited from earlier work
murine B16 melanoma = test: Murine B16 melanoma model in vivo; parameters: species or system mouse (B6D2F1); conditions: for Survivors: 60-day
Description: 1) Murine B16 Melanoma Model
(§1) For the B16 melanoma model, the following procedure was used. B6D2F1 mice receive i.p. inocula of B16 murine melanoma brei prepared from B16 tumors growing s.c. in mice (day 0). […] If dosing information for agents is not available, the maximum tolerated dose (MTD) is determined in initial dose finding experiments in non-tumored mice.
(§2) The mean survival times of all groups are calculated, and results are expressed as mean survival of treated mice/mean survival of control mice (T/C)×100%. A T/C value of 150 means that the mice in the treated group lived 50% longer than those of the control group; this is sometimes referred to as the increase in life span or ILS value.
Mice that survive for 60 days are considered long-term survivors, or cures, in the B16 model. The universally accepted cut-off for activity in this model, which has been for years by the National Cancer Institute, is T/C=125. Conventional use of B16 over the years has set the following levels of activity: T/C<125, no activity, T/C=125-150, weak activity; T/C=150-200, modest activity; T/C=200-300, high activity; T/C>300, with long term survivors; excellent, curative activity.

[1] = as hydrochloride salt; cited from earlier work
[2] = system: human lung tumor xenograft; test: Human lung tumor xenograft model; format: in vivo, human tumor in nude mice
Text: (§3) For the human lung and prostate tumor xenograft models the following procedure was used. Nude mice were implanted s.c. by trocar with fragments of human lung or prostate carcinomas harvested from s.c. growing tumors in nude mice hosts. When tumors were approximately 5 mm×5 mm in size (usually ten to fourteen days after inoculation), the animals were pair-matched into treatment and control groups. Each group contained 10 tumored mice, each of which was ear-tagged and followed individually throughout the experiment. […] The doses, route of drug administration and schedule were selected as appropriate for the study in question. (See above protocol). […] Topotecan was run as a positive control at its MTD dose on a daily×5 and a daily×1 schedule. Male nude mice were used for both prostate studies.
(§4) Mice are weighed twice weekly, and tumor measurements were taken by calipers twice weekly, starting on day 1.
(§5) Some drugs cause tumor shrinkage in the human tumor xenograft models. […] A mean % tumor shrinkage can be calculated from the data from the mice in a group that experienced tumor regressions.

[3] = human, in vivo; cited from earlier work
[4] = system: human prostate tumor xenograft; test: Human prostate tumor xenograft model; format: in vivo, human tumor in nude mice
Text: as §3, §4, §5

P388 murine leukemia = conditions: vs unmodified camptothecin, side by side; cited from earlier work
B16 murine melanoma = conditions: vs unmodified camptothecin, side by side; cited from earlier work
murine P388 leukemia = test: Murine P388 leukemia model in vivo; parameters: species or system mouse (B6D2F1)
Description: as §1, §2
For the P388 leukemia model, the procedure followed is exactly the same as the aforementioned B16 model. The tumor inoculum is prepared by removing ascited fluid containing P388 cells from tumored B6D2F1 mice, centrifuging the cells, and then resuspending the leukemia cells in saline. Mice receive 1×10^6 P388 cells i.p. on day 0.

Lewis lung carcinoma = conditions: vs unmodified camptothecin, side by side; cited from earlier work
[5] = system: MX-1 human breast tumor xenograft; test: in vivo
Text: For all the models, the vehicle used to deliver the analog of interest was isotonic saline.
For the MX-1 human breast tumor xenograft models, the following procedure was used. Nude mice are implanted s.c. by trocar with fragments of MX-1 mammary carcinomas harvested from s.c. growing MX-1 tumors in nude mice hosts. When tumors are approximately 5 mm×5 mm in size (usually about ten days after inoculation), the animals are pair-matched into treatment and control groups. Each group contains ten tumored mice, each of which is ear-tagged and followed individually throughout the experiment. The administration of drugs or vehicle begins the day the animals are pair-matched (day 1). The doses, route of drug administration and schedule are selected as appropriate for the study in question. If the MTD dose of an agent is not known, it is determined in an initial dosing experiment in non-tumored mice. In a typical experiment, drugs are given at their MTD and 1/2 MTD doses i.p. on a daily×5 schedule.
The experiment is usually terminated when control tumors reach a size of 2-3 g. Mice are weighed twice weekly, and tumor measurements are taken by calipers twice weekly, starting on day 1. These tumor measurements are converted to mg tumor weight by a well known formula, and from these calculated tumor weights the termination date can be determined. Upon termination, all mice are weighed, sacrificed, and their tumors excised. Tumors are weighed, and the mean tumor weight per group is calculated.
Some drugs cause tumor shrinkage in the MX-1 model. With these agents, the final weight of a given tumor is subtracted from its own weight at the start of the treatment on day 1. This difference divided by the initial tumor weight is the % shrinkage. A mean % tumor shrinkage can be calculated from data from the mice in a group that experienced MX-1 regressions. If the tumor completely disappears in a mouse, this is considered a complete regression or complete tumor shrinkage. If desired, mice with partial or total tumor regressions can be kept alive past the termination date to see whether they live to become long term, tumor-free survivors.
Note that in the following table the abbreviation SR refers to tumor shrinkage rate, while those entries followed by a superscripted `2` are tumor growth inhibition rates, not tumor shrinkage rates.

SMILES: CC[C@@]1(O)C(=O)OCc2c1cc1n(c2=O)Cc2cc3c(CN(C)C)c(O)ccc3nc2-1 [TPT, [(s)-9-dimethylaminomethyl-10-hydroxycamptothecin hydrochloride], reference compound]
- anti-tumor effect in vitro (carcinoma cells): significant anti-tumor effects
- IC50 (topoisomerase I): 1100 nM
- topoisomerase I IC50 (topoisomerase I): 0.504 µg/mL
- effectiveness against tumor growth in animal studies (tumor growth): at least as good or better than camptothecin
- 60-day survivors (cures) (murine B16 melanoma; 2 mg/kg): one
- T/C (mean survival treated/control) (murine B16 melanoma; 2 mg/kg i.p. daily×5): 201%
- Tox Deaths (murine B16 melanoma; 2 mg/kg i.p. daily×5): 0/10
- ΔWeight (%) (murine B16 melanoma; 2 mg/kg i.p. daily×5): +1.9%
- Survivors (murine B16 melanoma; 2 mg/kg i.p. daily×5): 1/10
- T/C (mean survival treated/control) (murine B16 melanoma; 2 mg/kg i.p. daily×5, listed as Topotecan): 210%
- T/C (mean survival treated/control) (murine B16 melanoma; 4 mg/kg i.p. daily×5): 212%
- Tox Deaths (murine B16 melanoma; 4 mg/kg i.p. daily×5): 0/10
- ΔWeight (%) (murine B16 melanoma; 4 mg/kg i.p. daily×5): -7.0%
- Survivors (murine B16 melanoma; 4 mg/kg i.p. daily×5): 0/10
- water solubility [1]: 1000 µg/mL
- Deaths ([2]; 4 mg/kg × 5 days): 0/10
- Shrink (% Tumor Shrinkage Rate) ([2]; 4 mg/kg × 5 days): 55%
- Shrink (number of animals) ([2]; 4 mg/kg × 5 days): 2/10
- TGI (% Tumor Growth Inhibition Rate) ([2]; 4 mg/kg × 5 days): 66%
- TGI (number of animals) ([2]; 4 mg/kg × 5 days): 8/10
- Deaths ([2]; 8 mg single ds): 0/10
- Shrink (number of animals) ([2]; 8 mg single ds): 0/10
- TGI (number of animals) ([2]; 8 mg single ds): 0/10
- efficacy, single dose ([2]; single dose, in words): completely ineffective
- side effects in human clinical studies [3]: myelosuppression, neutropenia, and thrombocytopenia
- Deaths ([4]; 3 mg/kg × 5 days): 0/10
- Shrink (number of animals) ([4]; 3 mg/kg × 5 days): 0/10
- TGI (% Tumor Growth Inhibition Rate) ([4]; 3 mg/kg × 5 days): 35%
- TGI (number of animals) ([4]; 3 mg/kg × 5 days): 10/10
- Deaths ([4]; 8 mg single ds): 0/10
- Shrink (number of animals) ([4]; 8 mg single ds): 0/10
- TGI (number of animals) ([4]; 8 mg single ds): 0/10
- efficacy, single dose ([4]; single dose, in words): completely ineffective
- in vivo antitumor efficacy (P388 murine leukemia): superior to unmodified camptothecin
- in vivo antitumor efficacy (B16 murine melanoma): superior to unmodified camptothecin
- 30-day survivors (murine P388 leukemia; 4 mg/kg daily×5): Three
- T/C (mean survival treated/control) (murine P388 leukemia; 4 mg/kg i.p. daily×5): 297%
- Tox Deaths (murine P388 leukemia; 4 mg/kg i.p. daily×5): 0/10
- ΔWeight (%) (murine P388 leukemia; 4 mg/kg i.p. daily×5): -6.6%
- Survivors (murine P388 leukemia; 4 mg/kg i.p. daily×5, 30-day): 3/10
- efficacy vs P388 leukemia (murine P388 leukemia; i.p. five day schedule, in words): comparable to that produced by HAR 6
- in vivo antitumor efficacy (Lewis lung carcinoma): superior to unmodified camptothecin
- weight loss ([5]; 4 mg/kg): 15%
- Tox Deaths ([5]; 4 mg/kg i.p. daily×5): 0/10
- ΔWeight (%) ([5]; 4 mg/kg i.p. daily×5): -15.4%
- mean tumor shrinkage ([5]; 4 mg/kg i.p. daily×5, all 10 mice, HAR 6 experiment): 94%
- Shrinkage (animals) ([5]; 4 mg/kg i.p. daily×5, partial (94%)): 6/10
- mice with tumor shrinkage ([5]; 4 mg/kg, HAR 6 experiment): 10
- mortality ([5]; 4 mg/kg, HAR 6 experiment): no mortality
- complete regressions ([5]; 4 mg/kg, second experiment): one
- drug-related deaths ([5]; 4 mg/kg, second experiment): one
- mice with tumor growth inhibition ([5]; 4 mg/kg, second experiment): two
- partial responders ([5]; 4 mg/kg, second experiment): six
- Shrinkage (animals) ([5]; 4 mg/kg, complete (100%) shrinkage): 1/10
- tumor growth inhibition ([5]; 4 mg/kg, two mice, second experiment): 94%
- SR(%) (Tumor Shrinkage Rate) ([5]; in vivo): 94% and 100%
